{
  "source": "patent US6667337B2",
  "about": "“Combination therapy for cancer” (Cancer Research Technology Limited, priority 2000, dated 2003)",
  "key": {"[1]": {"assay": "Host toxicity (lethality, body weight 4-5 days after drug treatment)", "format": "in vivo, female C3H/HeN mice", "method": "(§1) Murine mammary carcinoma MDAH—MCa-4 tumours were grown in female C3H/HeN mice from stocks stored in liquid nitrogen at the sixth transplant generation, and were passaged and used for experiments at the eighth transplant generation. Tumours for experiments were grown by inoculating 20 μl of cell suspension (5 mg packed cells) intramuscularly in the right gastrocenmius muscle. Animals were randomised to treatment groups, and treated with drugs when the dliameter of the tumour-bearing leg reached 10-11 mm (ca 0.6 g tumour), approximately 18 days after inoculation. […] Both compounds were administered essentially at the same time (within 1 min). Host toxicity was assessed by determination of lethality, and by measurement of body weight 4-5 days after drug treatment. The diameter of the tumour-bearing leg was measured three times weekly until values exceeded 13 mm (ca 1.4 g tumour) at which time the animals were terminated. The growth curve for each individual tumour was plotted as in FIG. 1, and the time-to-endpoint (TTE, time from treatment to endpoint) was determined for each mouse. The median and mean TTE was determined for each treatment group. The mean tumour growth delay for each group was calculated as the difference between mean TTE for treated and control groups. The statistical significance of the antitumour effects was tested using ANOVA followed by Dunnett's test to determine p values for the significance of differences between individual groups."}, "[2]": {"system": "Murine mammary carcinoma MDAH-MCa-4 tumours", "assay": "Antitumour activity (tumour growth delay, cures) against MDAH-MCa-4 tumour", "format": "in vivo, female C3H/HeN mice", "conditions": "for Growth delay (days) Median: interim analysis", "method": "as §1"}, "[3]": {"conditions": "DMXAA 80 μmol/kg alone, group 120/B"}, "[4]": {"conditions": "paclitaxel 23.7 μmol/kg alone, group 120/C"}},
  "data": [
    {"molecule": "Cc1ccc2c(=O)c3cccc(CC(=O)O)c3oc2c1C", "note": "[DMXAA, 5,6-dimethylxanthenone-4-acetic acid]", "values": [
      {"measurement": "% Body weight change (d4-5) Mean", "setting": "[1]; [3]", "value": "−6.0", "unit": "%"},
      {"measurement": "Growth delay (days) Median", "setting": "[2]; [3]", "value": 17.9, "unit": "days"}
    ]},
    {"molecule": "CC(=O)O[C@H]1C(=O)[C@@]2(C)[C@H]([C@H](OC(=O)c3ccccc3)[C@]3(O)C[C@H](OC(=O)[C@H](O)[C@@H](NC(=O)c4ccccc4)c4ccccc4)C(C)=C1C3(C)C)[C@]1(OC(C)=O)CO[C@@H]1C[C@@H]2O", "note": "[Paclitaxel, paclitaxel]", "values": [
      {"measurement": "% Body weight change (d4-5) Mean", "setting": "[1]; [4]", "value": "−0.1", "unit": "%"},
      {"measurement": "Number of mice Deaths", "setting": "[1]; paclitaxel 23.7 μmol/kg alone, group 120/C, 7 mice treated, interim analysis", "value": 1},
      {"measurement": "host toxicity (in words)", "setting": "[1]; paclitaxel alone, 42 μmol/kg", "value": "not demonstrably toxic"},
      {"measurement": "Growth delay (days) Median", "setting": "[2]; [4]", "value": 3.5, "unit": "days"},
      {"measurement": "antitumour activity (in words)", "setting": "[2]; paclitaxel alone, up to 42 μmol/kg", "value": "little antitumour activity"}
    ]}
  ]
}
